± gives the expanded uncertainty stated by the source.
Conditions: Liquid; for viscosity: Falling or rolling sphere viscometry; for mass density: Vibrating tube method; for electrical conductivity: Alternating current cell with electrodes

Row | viscosity (293.15 K, 101 kPa) | mass density (293.15 K, 101 kPa) | electrical conductivity (298.15 K, 101 kPa) | viscosity (298.15 K, 101 kPa) | mass density (298.15 K, 101 kPa) | viscosity (303.15 K, 101 kPa) | mass density (303.15 K, 101 kPa) | viscosity (308.15 K, 101 kPa) | mass density (308.15 K, 101 kPa) | viscosity (313.15 K, 101 kPa) | mass density (313.15 K, 101 kPa) | viscosity (293.15 K, 101.33 kPa) | viscosity (298.15 K, 101.33 kPa) | viscosity (303.15 K, 101.33 kPa) | viscosity (308.15 K, 101.33 kPa) | viscosity (313.15 K, 101.33 kPa) | SMILES
1 | 771.69 ± 71 mPa·s | 959.61 ± 0.23 kg/m3 | 0.021 ± 0.001 S/m | 546.35 ± 44 mPa·s | 956.44 ± 0.23 kg/m3 | 397.17 ± 28 mPa·s | 953.33 ± 0.23 kg/m3 | 294.59 ± 18 mPa·s | 950.15 ± 0.23 kg/m3 | 222.24 ± 11 mPa·s | 946.98 ± 0.23 kg/m3 | – | – | – | – | – | CC(=O)O.CCCCN [butylammonium acetate]
2 | 111.35 ± 3.6 mPa·s | 1104.68 ± 0.31 kg/m3 | 0.867 ± 0.017 S/m | 89.95 ± 2.5 mPa·s | 1101.52 ± 0.31 kg/m3 | 73.04 ± 1.8 mPa·s | 1098.38 ± 0.31 kg/m3 | 60.25 ± 1.3 mPa·s | 1095.26 ± 0.31 kg/m3 | 50.12 ± 1.1 mPa·s | 1092.17 ± 0.3 kg/m3 | – | – | – | – | – | CCCC[NH3+].O=[N+]([O-])[O-] [n-butylammonium nitrate]
3 | – | – | – | – | – | – | – | – | – | – | – | 1.002 ± 0.021 mPa·s | 0.89 ± 0.019 mPa·s | 0.797 ± 0.017 mPa·s | 0.718 ± 0.015 mPa·s | 0.651 ± 0.014 mPa·s | O [water]
